Our source for the IC50 values is patent EP2366394A1, “Characterization and validation of inhibitors and ligands of dipeptidyl aminopeptidase IV (DP IV)” (IMTM GmbH, priority 2010, dated 2011).

Like-named read-outs stand apart in the source and are kept apart here. Some results are limits rather than exact numbers.

By IC50 is commonly meant the point on the concentration scale where inhibition reaches its midpoint.

Assay [1] has as its system T lymphocytes. The experiment in a line: Inhibition of proliferation (DNA synthesis, tritium thymidine incorporation) of PHA-stimulated T lymphocytes. The format is cell-based. Particulars: Homo sapiens, T-lymphocyte, read-out: IC50(Tc) Measured DNA-Supp. The procedure: Peripheral blood mononuclear cells (PBMC) from healthy human volunteers were freshly isolated by density gradient centrifugation. T lymphocytes (T cells, Tc) were isolated from PBMC fractions via nylon wool adherence. Cells were cultured in standard cell culture media and stimulated by addition of 1 µg/ml Phytohemagglutinine for 48 hours in 96 well flat-bottom microtitre plates. […] DNA synthesis of proliferating T cells was determined by incorporation of radio labelled tritium thymidine and subsequent radio detection. […] The IC50 value of proliferation suppression was assessed by graphical evaluation.
Background: Incorporation of labelled thymidine or its analogues reports DNA synthesis.

Assay [2] deals with DP8/9. Kind of assay: Inhibition of the enzymatic activity of DPIV related enzymes DP8/9. Particulars: > 25: No inhibition. The format is biochemical. The text has this: Measurement of the enzymatic activity of DPIV and related enzymes
In assay [3] the target is purified, recombinant human DPIV (Homo sapiens, UniProt P27487). The experiment in a line: Inhibition of the enzymatic activity of DPIV, fluorogenic substrate (Ala-Pro)2-R110. The assay is classed as biochemical. Particulars: substrate 0.5 µM, pH 7.5; highest test concentration 25 µM; > 25: No inhibition. Here is the method: The assay was performed in 0.05 M TRIS/HCl buffer, pH 7.5, supplemented with 0.05 % Triton® (v/v), 0.05 % BSA (w/v), 2 mM MgCl2.
The enzymatic activity of DPIV was assessed by the hydrolysis of the fluorogenic substrate Bis-(L-Alanyl-Prolyl)-Rhodamin-110 (Bis-Trifluoroacetate; abbreviation: (Ala-Pro)2-R110). The final substrate concentration was 0.5 µM.
The assay was performed in white microtitre plates for fluorescence measurements. The test items, substrate and enzyme, were diluted in assay buffer. […] For the calculation of IC50 values, at least 16 log2 dilutions of each test item were analyzed. As controls, the DPIV activity in the absence of test items as well as the spontaneous hydrolysis of the substrate was determined.

The mark [4] stands for this setting: suppression of DNA synthesis of T cells, 1 µg/ml Phytohemagglutinine, 48 hours, graphical evaluation.

Chain of purified, recombinant human DPIV (P27487 whole entry): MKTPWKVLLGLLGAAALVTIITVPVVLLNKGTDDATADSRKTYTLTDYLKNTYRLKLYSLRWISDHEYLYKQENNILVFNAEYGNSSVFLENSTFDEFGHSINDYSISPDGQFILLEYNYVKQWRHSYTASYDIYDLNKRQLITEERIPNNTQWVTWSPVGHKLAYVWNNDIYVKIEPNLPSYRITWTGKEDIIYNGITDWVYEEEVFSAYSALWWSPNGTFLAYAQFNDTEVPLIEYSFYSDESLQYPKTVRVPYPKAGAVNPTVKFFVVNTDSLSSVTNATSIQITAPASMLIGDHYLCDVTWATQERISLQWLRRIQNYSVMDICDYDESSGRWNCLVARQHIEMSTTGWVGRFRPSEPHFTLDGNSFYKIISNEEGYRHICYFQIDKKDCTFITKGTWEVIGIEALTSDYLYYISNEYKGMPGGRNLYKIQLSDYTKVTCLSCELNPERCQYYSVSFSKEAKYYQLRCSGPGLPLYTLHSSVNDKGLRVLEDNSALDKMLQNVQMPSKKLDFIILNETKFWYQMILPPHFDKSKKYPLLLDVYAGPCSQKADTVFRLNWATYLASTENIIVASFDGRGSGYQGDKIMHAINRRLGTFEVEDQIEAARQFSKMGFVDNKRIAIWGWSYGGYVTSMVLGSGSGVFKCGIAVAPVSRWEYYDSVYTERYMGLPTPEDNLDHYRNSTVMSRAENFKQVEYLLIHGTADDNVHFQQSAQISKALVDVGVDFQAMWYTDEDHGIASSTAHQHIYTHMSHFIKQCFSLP

For the compound `NC(CC(=O)N1CCN(C(c2ccc(F)cc2)c2ccc(F)cc2)CC1)C(=O)N1Cc2ccccc2C1` (stereo not shown) [No. 13, 2-Amino-1-(1,3-dihydro-2H-isoindol-2-yl)-4-(4-bis(4-fluorophenyl)-methylpiperazine-1-yl) butane-1,4-dione], the IC50 in assay [1] (48 h) amounted to 6 µM.

Take `NC(CCCCNC(=O)c1ccc(S)nc1)C(=O)N1CCSC1` (stereo not shown) [No. 8, N-[5-Amino-6-oxo-6-(1,3-thiazolidine-3-yl)hexyl]-6-mercapto nicotinamide]: the concentration for half-maximal inhibition (IC50) in assay [2] amounted to 0.001 µM; in assay [1] (48 h) it was 90 µM; in assay [3], 0.09 µM.

Consider `CCCCCC(=O)NC(CC(=O)NCC(C)(C)CNC(=O)C(O)C(Cc1ccccc1)NC(=O)CCCCC)Cc1cc(F)ccc1F` (stereo not shown) [No. 7, 3-Amino-5-phenyl-N-{3-[(3-amino-1-oxohexyl-2-hydroxypropanoyl)amino-1-oxohexyl]-2,2-dimethylpropyl}-5-(2,5-difluorophenyl)pentane 3-N-tert.butyl carbamate], for which the half-inhibitory concentration (IC50) is over 25 µM in assay [2], 10 µM in assay [1] (48 h) and over 25 µM in assay [3].

As for `NC(CC(=O)N1CCn2c(nnc2C(F)(F)F)C1)Cc1cc(F)c(F)cc1F` (stereo not shown) [No. 10, 3-Oxo-1-(2,4,5-trifluorobenzyl)-3-[3-(trifluoromethyl)-5,6-dihydro-[1,2,4]triazolo[4,3-a]pyrazine-7(8H)-yl]propyl amine], the results for the IC50 in assay [2] and in assay [1] (setting [4]) were 15.3 µM and 148 µM, respectively.

On to `CC(C)C(Oc1ccc(CNC(=O)C2CCCN2C(=O)CC(N)Cc2cc(F)ccc2F)cc1)C(=O)O` (stereo not shown) [No. 2, 2-[({[1-(3-Amino, 2-(2, 5)-difluorophenylbutanoyl)pyrrolidin-2-yl]carbonyl}amino)-p-phenoxy]-3-methyl butanoic acid], for which the 50% inhibitory concentration (IC50) in assay [2] is over 25 µM; in assay [1] (setting [4]), 81 µM; in assay [3], 0.48 µM.

Take `N[C@@H](CC(=O)N1CCn2c(nnc2C(F)(F)F)C1)Cc1cc(F)ccc1F` [No. 1, (1R)-1-(2,5-Difluorobenzyl)-3-oxo-3-[3-(trifluoromethyl)-5,6-dihydro[1,2,4]triazolo[4,3-a]pyrazine-7(8H)-yl]propylamine]: in assay [1] (48 h), the half-inhibitory concentration (IC50) was 200 µM.

For `CC[C@H](C)[C@H](N)C(=O)N1CCSC1` [No. 4, (1S,2S)-2-Methyl-1-(1,3-thiazolidine-3-ylcarbonyl) butyl amine], the IC50 in assay [2] turned out to be 1.73 µM; in assay [1] (48 h), 113 µM.

As to `CC(C)(CNC(=O)CC(Cc1cc(F)ccc1F)NC(=O)OC(C)(C)C)CNC(=O)C(O)C(Cc1ccccc1)NC(=O)OC(C)(C)C` (stereo not shown) [No. 6, 3-N-tert.-Butylcarbamato-5-phenyl-N-{3-[(3-amino-2-hydroxypropanoyl)-amino]-2,2-dimethylpropyl}-5-(2,5-difluorophenyl) pentane 3-amine], the results for the IC50 in assay [2], in assay [1] (48 h) and in assay [3] were over 25 µM, 8 µM and over 25 µM, respectively.

With `Cc1[nH]c2ccccc2c1C(c1cc(Cl)ccc1O)N1CCOCC1` (stereo not shown) [No. 16, 4-Chloro-2-[(2-methyl-1H-indol-3-yl)(morpholin-4-yl)methyl]-benzenolate], the IC50 in assay [1] (setting [4]) was 3 µM; in assay [3] it was over 25 µM.

Turning to `NC(CNC(=O)c1cccc(NC(=O)C(O)C(N)Cc2ccc(-c3cccnc3)cc2)c1)Cc1cc(F)ccc1F` (stereo not shown) [No. 15, 3-[(3-Amino-2-4-(4-(3-pyridinyl)-phenyl) hydroxybu-tanoyl)-amino]-N-(2-amino-5-(2,4-difluorophenyl)pentyl) ben-zamide], the IC50 in assay [2] was found to be 8.5 µM; in assay [1] (setting [4]), 24 µM.
